Measurements as given in patent US20230085307A1, “PYRIDAZINONE COMPOUND AND HERBICIDE” (NISSAN CHEMICAL CORPORATION, priority 2019, published 2023).

Legend:
late watergrass = assay: Test Example 1: herbicidal activity, application before weed generation under submerged conditions (Table 16, symbol A); format: in vivo, late watergrass (Echinochloa oryzicola); settings: 320 g/ha applied herbicide
Method in brief: (§1)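 Emulsion formulation, water-diluted to set dose, was put onto the flooded surface (4 cm depth, alluvial soil) the same day weeds were sown and 2.5-leaf rice transplanted. After 3 weeks at 25-30 °C under glass, each species was rated 0 (≤5% kill) to 5 (≥90% kill).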

Japanese bulrush = assay: Test Example 1: herbicidal activity, application before weed generation under submerged conditions (Table 16, symbol B); format: in vivo, Japanese bulrush (Schoenoplectus juncoides); settings: 320 g/ha applied herbicide
Method in brief: as §1

oval-leafed pondweed = assay: Test Example 1: herbicidal activity, application before weed generation under submerged conditions (Table 16, symbol C); format: in vivo, oval-leafed pondweed (Monochoria vaginalis); settings: 320 g/ha applied herbicide
Method in brief: as §1

barnyard grass [1] = assay: Test Example 3: herbicidal effect by foliage application, Wagner pot (Table 18, symbol H); format: in vivo, barnyard grass (Echinochloa crus-galli); settings: 320 g/ha
Method in brief: (§2)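 Plants were sown in alluvial soil held under 0.1–0.5 cm standing water and grown 14 days in a greenhouse at 25–30 °C. An emulsifiable formulation, water-diluted to the set dose, was then sprayed onto the foliage, and effects were scored three weeks later using previously defined criteria.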

Chinese sprangletop = assay: Test Example 3: herbicidal effect by foliage application, Wagner pot (Table 18, symbol D); format: in vivo, chinese sprangletop (Leptochloa chinensis); settings: 320 g/ha
Method in brief: as §2

rice flat sedge = assay: Test Example 3: herbicidal effect by foliage application, Wagner pot (Table 18, symbol E); format: in vivo, rice flat sedge (Cyperus iria); settings: 320 g/ha
Method in brief: as §2

southern crabgrass [2] = assay: Test Example 4: herbicidal effect by soil treatment (Table 19, symbol F); format: in vivo, southern crabgrass (Digitaria ciliaris); settings: amount of applied herbicide 320 g/ha
Method in brief: (§3)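 Seeds were sown in sterilized diluvial soil and covered with about 1.5 cm of soil. An emulsion formulation diluted with water to a predetermined herbicide amount was sprayed evenly onto the soil surface. Plants grew in a greenhouse at 25° C. to 30° C., and the effect was scored three weeks after application using criteria from an earlier test.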

green foxtail [3] = assay: Test Example 4: herbicidal effect by soil treatment (Table 19, symbol G); format: in vivo, green foxtail (Setaria viridis); settings: amount of applied herbicide 320 g/ha
Method in brief: as §3

barnyard grass [4] = assay: Test Example 4: herbicidal effect by soil treatment (Table 19, symbol H); format: in vivo, barnyard grass (Echinochloa crus-galli); settings: amount of applied herbicide 320 g/ha
Method in brief: as §3

wild oat [5] = assay: Test Example 4: herbicidal effect by soil treatment (Table 19, symbol I); format: in vivo, wild oat (Avena fatua); settings: amount of applied herbicide 320 g/ha
Method in brief: as §3

blackgrass [6] = assay: Test Example 4: herbicidal effect by soil treatment (Table 19, symbol J); format: in vivo, blackgrass (Alopecurus myosuroides); settings: amount of applied herbicide 320 g/ha
Method in brief: as §3

Italian ryegrass [7] = assay: Test Example 4: herbicidal effect by soil treatment (Table 19, symbol K); format: in vivo, Italian ryegrass (Lolium multiflorum); settings: amount of applied herbicide 320 g/ha
Method in brief: as §3

windgrass [8] = assay: Test Example 4: herbicidal effect by soil treatment (Table 19, symbol L); format: in vivo, windgrass (Apera spica-venti); settings: amount of applied herbicide 320 g/ha
Method in brief: as §3

velvetleaf [9] = assay: Test Example 4: herbicidal effect by soil treatment (Table 19, symbol M); format: in vivo, velvetleaf (Abutilon theophrasti); settings: amount of applied herbicide 320 g/ha
Method in brief: as §3

redroot pigweed [10] = assay: Test Example 4: herbicidal effect by soil treatment (Table 19, symbol N); format: in vivo, redroot pigweed (Amaranthus retroflexus); settings: amount of applied herbicide 320 g/ha
Method in brief: as §3

lambsquarters [11] = assay: Test Example 4: herbicidal effect by soil treatment (Table 19, symbol O); format: in vivo, lambsquarters (Chenopodium album); settings: amount of applied herbicide 320 g/ha
Method in brief: as §3

chickweed [12] = assay: Test Example 4: herbicidal effect by soil treatment (Table 19, symbol P); format: in vivo, common chickweed (Stellaria media); settings: amount of applied herbicide 320 g/ha
Method in brief: as §3

false cleavers [13] = assay: Test Example 4: herbicidal effect by soil treatment (Table 19, symbol Q); format: in vivo, false cleavers (Galium spurium); settings: amount of applied herbicide 320 g/ha
Method in brief: as §3

persian speedwell [14] = assay: Test Example 4: herbicidal effect by soil treatment (Table 19, symbol R); format: in vivo, Persian speedwell (Veronica persica); settings: amount of applied herbicide 320 g/ha
Method in brief: as §3

southern crabgrass [15] = assay: Test Example 5: herbicidal effect by foliage application, plastic box (Table 20, symbol F); format: in vivo, southern crabgrass (Digitaria ciliaris); settings: foliage application, 320 g/ha, three weeks after application
Method in brief: (§4)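 Plants sown in sterilized diluvial soil and grown 14 days in a greenhouse at 25° C to 30° C, then sprayed on the foliage with the compound's emulsion diluted in water to a predetermined herbicide amount. Injury to weeds and crops scored three weeks after application on a visual rating scale.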

green foxtail [16] = assay: Test Example 5: herbicidal effect by foliage application, plastic box (Table 20, symbol G); format: in vivo, green foxtail (Setaria viridis); settings: foliage application, 320 g/ha, three weeks after application
Method in brief: as §4

barnyard grass [17] = assay: Test Example 5: herbicidal effect by foliage application, plastic box (Table 20, symbol H); format: in vivo, barnyard grass (Echinochloa crus-galli); settings: foliage application, 320 g/ha, three weeks after application
Method in brief: as §4

wild oat [18] = assay: Test Example 5: herbicidal effect by foliage application, plastic box (Table 20, symbol I); format: in vivo, wild oat (Avena fatua); settings: foliage application, 320 g/ha, three weeks after application
Method in brief: as §4

blackgrass [19] = assay: Test Example 5: herbicidal effect by foliage application, plastic box (Table 20, symbol J); format: in vivo, blackgrass (Alopecurus myosuroides); settings: foliage application, 320 g/ha, three weeks after application
Method in brief: as §4

Italian ryegrass [20] = assay: Test Example 5: herbicidal effect by foliage application, plastic box (Table 20, symbol K); format: in vivo, Italian ryegrass (Lolium multiflorum); settings: foliage application, 320 g/ha, three weeks after application
Method in brief: as §4

windgrass [21] = assay: Test Example 5: herbicidal effect by foliage application, plastic box (Table 20, symbol L); format: in vivo, windgrass (Apera spica-venti); settings: foliage application, 320 g/ha, three weeks after application
Method in brief: as §4

velvetleaf [22] = assay: Test Example 5: herbicidal effect by foliage application, plastic box (Table 20, symbol M); format: in vivo, velvetleaf (Abutilon theophrasti); settings: foliage application, 320 g/ha, three weeks after application
Method in brief: as §4

redroot pigweed [23] = assay: Test Example 5: herbicidal effect by foliage application, plastic box (Table 20, symbol N); format: in vivo, redroot pigweed (Amaranthus retroflexus); settings: foliage application, 320 g/ha, three weeks after application
Method in brief: as §4

lambsquarters [24] = assay: Test Example 5: herbicidal effect by foliage application, plastic box (Table 20, symbol O); format: in vivo, lambsquarters (Chenopodium album); settings: foliage application, 320 g/ha, three weeks after application
Method in brief: as §4

chickweed [25] = assay: Test Example 5: herbicidal effect by foliage application, plastic box (Table 20, symbol P); format: in vivo, common chickweed (Stellaria media); settings: foliage application, 320 g/ha, three weeks after application
Method in brief: as §4

false cleavers [26] = assay: Test Example 5: herbicidal effect by foliage application, plastic box (Table 20, symbol Q); format: in vivo, false cleavers (Galium spurium); settings: foliage application, 320 g/ha, three weeks after application
Method in brief: as §4

persian speedwell [27] = assay: Test Example 5: herbicidal effect by foliage application, plastic box (Table 20, symbol R); format: in vivo, Persian speedwell (Veronica persica); settings: foliage application, 320 g/ha, three weeks after application
Method in brief: as §4

Cc1ccc(-c2sc3ccccc3c2-c2c(O)c(C)nn(C)c2=O)cc1C [1-065]
Herbicidal effect on A: late watergrass (grade 0-5) (late watergrass): 3 (Herbicidal rate of 40% or more and less than 70%) | Herbicidal effect on B: Japanese bulrush (grade 0-5) (Japanese bulrush): 0 (Herbicidal rate of 5% or less (almost no effect)) | Herbicidal effect on C: oval-leafed pondweed (grade 0-5) (oval-leafed pondweed): 0 (Herbicidal rate of 5% or less (almost no effect)) | herbicidal effect on H (barnyard grass), rating 0-5 (barnyard grass [1]): 3 (Herbicidal rate of 40% or more and less than 70%) | herbicidal effect on D (Chinese sprangletop), rating 0-5 (Chinese sprangletop): 3 (Herbicidal rate of 40% or more and less than 70%) | herbicidal effect on E (rice flat sedge), rating 0-5 (rice flat sedge): 5 (Herbicidal rate of 90% or more (almost completely withered)) | herbicidal effect rating, F: southern crabgrass (southern crabgrass [2]): 0 (Herbicidal rate of 5% or less (almost no effect)) | herbicidal effect rating, G: green foxtail (green foxtail [3]): 0 (Herbicidal rate of 5% or less (almost no effect)) | herbicidal effect rating, H: barnyard grass (barnyard grass [4]): 0 (Herbicidal rate of 5% or less (almost no effect)) | herbicidal effect rating, I: wild oat (wild oat [5]): 0 (Herbicidal rate of 5% or less (almost no effect)) | herbicidal effect rating, J: blackgrass (blackgrass [6]): 0 (Herbicidal rate of 5% or less (almost no effect)) | herbicidal effect rating, K: Italian ryegrass (Italian ryegrass [7]): 0 (Herbicidal rate of 5% or less (almost no effect)) | herbicidal effect rating, L: windgrass (windgrass [8]): 0 (Herbicidal rate of 5% or less (almost no effect)) | herbicidal effect rating, M: velvetleaf (velvetleaf [9]): 0 (Herbicidal rate of 5% or less (almost no effect)) | herbicidal effect rating, N: redroot pigweed (redroot pigweed [10]): 0 (Herbicidal rate of 5% or less (almost no effect)) | herbicidal effect rating, O: lambsquarters (lambsquarters [11]): 0 (Herbicidal rate of 5% or less (almost no effect)) | herbicidal effect rating, P: chickweed (chickweed [12]): 3 (Herbicidal rate of 40% or more and less than 70%) | herbicidal effect rating, Q: false cleavers (false cleavers [13]): 0 (Herbicidal rate of 5% or less (almost no effect)) | herbicidal effect rating, R: persian speedwell (persian speedwell [14]): 4 (Herbicidal rate of 70% or more and less than 90%) | herbicidal effect grade, F: southern crabgrass (southern crabgrass [15]): 3 (Herbicidal rate of 40% or more and less than 70%) | herbicidal effect grade, G: green foxtail (green foxtail [16]): 3 (Herbicidal rate of 40% or more and less than 70%) | herbicidal effect grade, H: barnyard grass (barnyard grass [17]): 3 (Herbicidal rate of 40% or more and less than 70%) | herbicidal effect grade, I: wild oat (wild oat [18]): 0 (Herbicidal rate of 5% or less (almost no effect)) | herbicidal effect grade, J: blackgrass (blackgrass [19]): 0 (Herbicidal rate of 5% or less (almost no effect)) | herbicidal effect grade, K: Italian ryegrass (Italian ryegrass [20]): 2 (Herbicidal rate of 20% or more and less than 40%) | herbicidal effect grade, L: windgrass (windgrass [21]): 0 (Herbicidal rate of 5% or less (almost no effect)) | herbicidal effect grade, M: velvetleaf (velvetleaf [22]): 5 (Herbicidal rate of 90% or more (almost completely withered)) | herbicidal effect grade, N: redroot pigweed (redroot pigweed [23]): 3 (Herbicidal rate of 40% or more and less than 70%) | herbicidal effect grade, O: lambsquarters (lambsquarters [24]): 3 (Herbicidal rate of 40% or more and less than 70%) | herbicidal effect grade, P: chickweed (chickweed [25]): 5 (Herbicidal rate of 90% or more (almost completely withered)) | herbicidal effect grade, Q: false cleavers (false cleavers [26]): 3 (Herbicidal rate of 40% or more and less than 70%) | herbicidal effect grade, R: persian speedwell (persian speedwell [27]): 5 (Herbicidal rate of 90% or more (almost completely withered))
